Data reported in ChEMBL document CHEMBL1201862, “PubChem BioAssay data set” (2004).
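Assay format: 96-well plates, 48-hour exposure. GI50 is the concentration that inhibits growth by half.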 Active and inactive are the calls of the source. No stated cut-off is given here; in the data, active = GI50 up to about 1.1 µM and inactive = higher.

Assays:
Experiment in all cases: DTP human tumour cell line panel, 48 h
SNB-75 = tested on: SNB-75
A549 = tested on: A549
NCI-H460 = tested on: NCI-H460
COLO 205 = tested on: COLO 205
LOX IMVI = tested on: LOX IMVI
UO-31 = tested on: UO-31
MOLT-4 = tested on: MOLT-4
UACC-257 = tested on: UACC-257
SK-OV-3 = tested on: SK-OV-3
MDA-MB-231 = tested on: MDA-MB-231
786-0 = tested on: 786-0
MDA-MB-435 = tested on: MDA-MB-435
HOP-92 = tested on: HOP-92
SK-MEL-28 = tested on: SK-MEL-28
SF-268 = tested on: SF-268
NCI-H522 = tested on: NCI-H522
NCI/ADR-RES = tested on: NCI/ADR-RES
A498 = tested on: A498
SF-539 = tested on: SF-539
IGROV-1 = tested on: IGROV-1
Malme-3M = tested on: Malme-3M
K562 = tested on: K562
SW-620 = tested on: SW-620
KM12 = tested on: KM12
UACC-62 = tested on: UACC-62
HCT-15 = tested on: HCT-15
MCF7 = tested on: MCF7
HL-60 = tested on: HL-60
M14 = tested on: M14
OVCAR-8 = tested on: OVCAR-8
HOP-62 = tested on: HOP-62
SR = tested on: SR
HT-29 = tested on: HT-29
CCRF-CEM = tested on: CCRF-CEM
DU-145 = tested on: DU-145
OVCAR-5 = tested on: OVCAR-5
NCI-H23 = tested on: NCI-H23
U-251 = tested on: U-251
MDA-N = tested on: MDA-N
RPMI-8226 = tested on: RPMI-8226
ACHN = tested on: ACHN
OVCAR-4 = tested on: OVCAR-4
BT-549 = tested on: BT-549
NCI-H226 = tested on: NCI-H226
RXF 393 = tested on: RXF 393
SNB-19 = tested on: SNB-19
SK-MEL-2 = tested on: SK-MEL-2
T47D = tested on: T47D
HCT-116 = tested on: HCT-116
CAKI-1 = tested on: CAKI-1
EKVX = tested on: EKVX
OVCAR-3 = tested on: OVCAR-3
SF-295 = tested on: SF-295
SN12C = tested on: SN12C
PC-3 = tested on: PC-3
Hs-578T = tested on: Hs-578T
SK-MEL-5 = tested on: SK-MEL-5
HCC 2998 = tested on: HCC 2998
TK-10 = tested on: TK-10

O=c1[nH]c2cc([N+](=O)[O-])c(N(CCO)CCO)c([N+](=O)[O-])c2[nH]1
GI50 (SNB-75): 23.6 µM (inactive)
GI50 (A549): 35.2 µM (inactive)
GI50 (NCI-H460): 21.4 µM (inactive)
GI50 (COLO 205): 20 µM (inactive)
GI50 (LOX IMVI): 37.5 µM (inactive)
GI50 (UO-31): 35.1 µM (inactive)
GI50 (MOLT-4): 24.5 µM (inactive)
GI50 (UACC-257): 27 µM (inactive)
GI50 (SK-OV-3): 27 µM (inactive)
GI50 (MDA-MB-231): 52.6 µM (inactive)
GI50 (786-0): 35.4 µM (inactive)
GI50 (MDA-MB-435): 28.7 µM (inactive)
GI50 (HOP-92): 41 µM (inactive)
GI50 (SK-MEL-28): 29.4 µM (inactive)
GI50 (SF-268): 37.4 µM (inactive)
GI50 (NCI-H522): 28.1 µM (inactive)
GI50 (NCI/ADR-RES): 31.8 µM (inactive)
GI50 (A498): 22.2 µM (inactive)
GI50 (SF-539): 23.8 µM (inactive)
GI50 (IGROV-1): 65.5 µM (inactive)
GI50 (Malme-3M): 61.2 µM (inactive)
GI50 (K562): 32 µM (inactive)
GI50 (SW-620): 41.2 µM (inactive)
GI50 (KM12): 22.6 µM (inactive)
GI50 (UACC-62): 24.1 µM (inactive)
GI50 (HCT-15): 31.3 µM
GI50 (MCF7): 46.8 µM (inactive)
GI50 (HL-60): 28.2 µM (inactive)
GI50 (M14): 28.6 µM (inactive)
GI50 (OVCAR-8): 31.3 µM (inactive)
GI50 (HOP-62): 33 µM (inactive)
GI50 (SR): 24.1 µM (inactive)
GI50 (HT-29): 30.3 µM (inactive)
GI50 (CCRF-CEM): 44.7 µM (inactive)
GI50 (DU-145): 39.4 µM (inactive)
GI50 (OVCAR-5): 31.9 µM (inactive)
GI50 (NCI-H23): 30.5 µM (inactive)
GI50 (U-251): 44.1 µM (inactive)
GI50 (MDA-N): 33.7 µM (inactive)
GI50 (RPMI-8226): 26.7 µM (inactive)
GI50 (ACHN): 43.7 µM (inactive)
GI50 (OVCAR-4): 36 µM (inactive)
GI50 (BT-549): 18.5 µM (inactive)
GI50 (NCI-H226): 24 µM (inactive)
GI50 (RXF 393): 16.7 µM (inactive)
GI50 (SNB-19): 39.8 µM (inactive)
GI50 (SK-MEL-2): 37.6 µM (inactive)
GI50 (T47D): 19.5 µM (inactive)
GI50 (HCT-116): 27.7 µM (inactive)
GI50 (CAKI-1): 29 µM (inactive)
GI50 (EKVX): 12.9 µM (inactive)
GI50 (OVCAR-3): 16.9 µM (inactive)
GI50 (SF-295): 28.4 µM (inactive)
GI50 (SN12C): 34.8 µM (inactive)
GI50 (PC-3): 44.4 µM (inactive)
GI50 (Hs-578T): 53.2 µM (inactive)
GI50 (SK-MEL-5): 17.5 µM (inactive)

CC1=C(C(=O)N[C@@H](CC(C)C)C(=O)O)N2C(=O)[C@@H](NC(=O)C(N)c3ccccc3)[C@H]2SC1 (some centres not stated)
GI50 (HCC 2998): > 100 µM (inactive)
GI50 (SNB-75): > 100 µM (inactive)
GI50 (A549): > 100 µM (inactive)
GI50 (NCI-H460): > 100 µM (inactive)
GI50 (COLO 205): > 100 µM (inactive)
GI50 (LOX IMVI): > 100 µM (inactive)
GI50 (MOLT-4): > 100 µM (inactive)
GI50 (UACC-257): > 100 µM (inactive)
GI50 (MDA-MB-231): > 100 µM (inactive)
GI50 (786-0): > 100 µM (inactive)
GI50 (MDA-MB-435): > 100 µM (inactive)
GI50 (HOP-92): > 100 µM (inactive)
GI50 (SK-MEL-28): > 100 µM (inactive)
GI50 (SF-268): > 100 µM (inactive)
GI50 (NCI-H522): > 100 µM (inactive)
GI50 (NCI/ADR-RES): > 100 µM (inactive)
GI50 (A498): > 100 µM (inactive)
GI50 (SF-539): > 100 µM (inactive)
GI50 (IGROV-1): > 100 µM (inactive)
GI50 (Malme-3M): > 100 µM (inactive)
GI50 (K562): > 100 µM (inactive)
GI50 (SW-620): > 100 µM (inactive)
GI50 (KM12): > 100 µM (inactive)
GI50 (UACC-62): 79.3 µM (inactive)
GI50 (HCT-15): > 100 µM
GI50 (MCF7): > 100 µM (inactive)
GI50 (HL-60): > 100 µM (inactive)
GI50 (M14): > 100 µM (inactive)
GI50 (OVCAR-8): > 100 µM (inactive)
GI50 (SR): > 100 µM (inactive)
GI50 (CCRF-CEM): > 100 µM (inactive)
GI50 (DU-145): > 100 µM (inactive)
GI50 (OVCAR-5): > 100 µM (inactive)
GI50 (U-251): > 100 µM (inactive)
GI50 (MDA-N): > 100 µM (inactive)
GI50 (RPMI-8226): > 100 µM (inactive)
GI50 (ACHN): > 100 µM (inactive)
GI50 (OVCAR-4): > 100 µM (inactive)
GI50 (BT-549): > 100 µM (inactive)
GI50 (NCI-H226): 60.4 µM (inactive)
GI50 (RXF 393): > 100 µM (inactive)
GI50 (SNB-19): > 100 µM (inactive)
GI50 (SK-MEL-2): > 100 µM (inactive)
GI50 (T47D): > 100 µM (inactive)
GI50 (CAKI-1): > 100 µM (inactive)
GI50 (EKVX): > 100 µM (inactive)
GI50 (TK-10): > 100 µM (inactive)
GI50 (OVCAR-3): > 100 µM (inactive)
GI50 (SF-295): > 100 µM (inactive)
GI50 (SN12C): > 100 µM (inactive)
GI50 (PC-3): > 100 µM (inactive)
GI50 (Hs-578T): > 100 µM (inactive)
GI50 (SK-MEL-5): > 100 µM (inactive)

CC(C)(C)OC(=O)NCC(c1c[nH]c2ccccc12)c1c[nH]c2ccccc12
GI50 (SNB-75): 14.7 µM (inactive)
GI50 (A549): 14.6 µM (inactive)
GI50 (NCI-H460): 14.9 µM (inactive)
GI50 (COLO 205): 14.6 µM (inactive)
GI50 (LOX IMVI): 17.9 µM (inactive)
GI50 (UO-31): 14.1 µM (inactive)
GI50 (MOLT-4): 11.7 µM (inactive)
GI50 (UACC-257): 15.1 µM (inactive)
GI50 (SK-OV-3): 16.8 µM (inactive)
GI50 (MDA-MB-231): 16 µM (inactive)
GI50 (786-0): 16.1 µM (inactive)
GI50 (MDA-MB-435): 15.7 µM (inactive)
GI50 (HOP-92): 13.1 µM (inactive)
GI50 (SK-MEL-28): 18.1 µM (inactive)
GI50 (SF-268): 17.1 µM (inactive)
GI50 (NCI-H522): 18.2 µM (inactive)
GI50 (NCI/ADR-RES): 19.4 µM (inactive)
GI50 (A498): > 100 µM (inactive)
GI50 (SF-539): 17.7 µM (inactive)
GI50 (IGROV-1): 12.3 µM (inactive)
GI50 (Malme-3M): 17.7 µM (inactive)
GI50 (SW-620): 17 µM (inactive)
GI50 (KM12): 13.3 µM (inactive)
GI50 (UACC-62): > 100 µM (inactive)
GI50 (HCT-15): 20.8 µM
GI50 (MCF7): 67.5 µM (inactive)
GI50 (HL-60): 14.4 µM (inactive)
GI50 (M14): 14.9 µM (inactive)
GI50 (OVCAR-8): 16.7 µM (inactive)
GI50 (HOP-62): 16.9 µM (inactive)
GI50 (SR): 14.9 µM (inactive)
GI50 (HT-29): 15.1 µM (inactive)
GI50 (CCRF-CEM): 14.6 µM (inactive)
GI50 (DU-145): 15.6 µM (inactive)
GI50 (OVCAR-5): 16.9 µM (inactive)
GI50 (NCI-H23): 18.4 µM (inactive)
GI50 (U-251): 16.1 µM (inactive)
GI50 (MDA-N): 17.5 µM (inactive)
GI50 (RPMI-8226): 6.62 µM (inactive)
GI50 (ACHN): > 100 µM (inactive)
GI50 (OVCAR-4): 12.9 µM (inactive)
GI50 (BT-549): 18.9 µM (inactive)
GI50 (NCI-H226): 21 µM (inactive)
GI50 (RXF 393): 4.56 µM (inactive)
GI50 (SNB-19): 16.9 µM (inactive)
GI50 (SK-MEL-2): 18.4 µM (inactive)
GI50 (T47D): 17 µM (inactive)
GI50 (HCT-116): 16 µM (inactive)
GI50 (CAKI-1): 14.5 µM (inactive)
GI50 (EKVX): 12.7 µM (inactive)
GI50 (TK-10): 15.5 µM (inactive)
GI50 (OVCAR-3): 15.3 µM (inactive)
GI50 (SF-295): 15.6 µM (inactive)
GI50 (SN12C): 16.7 µM (inactive)
GI50 (PC-3): 15.8 µM (inactive)
GI50 (Hs-578T): 24.1 µM (inactive)
GI50 (SK-MEL-5): 13 µM (inactive)
